Calls of active or inactive are those of the source. The rule behind the calls is not given here.
Experiments:
Type in all cases: protein assay
[1] = biological target: T1, Mushroom tyrosinase (Agaricus bisporus) (UniProt O42713+Q00024+C7FF04+C7FF05); experiment: Inhibition of mushroom Tyrosinase using L-DOPA as substrate assessed as reduction in oxygen consumption
[2] = biological target: T1, Mushroom tyrosinase (Agaricus bisporus); experiment: Inhibition of mushroom Tyrosinase using L-DOPA as substrate assessed as change in absorbance at 50 to 100 uM by spectrophotometric analysis; details: dose 50-100 µM
[3] = biological target: T1, Mushroom tyrosinase (Agaricus bisporus); experiment: Inhibition of mushroom Tyrosinase using L-DOPA as substrate assessed as change in absorbance at 50 to 100 uM at 305 nm by spectrophotometric analysis; details: dose 50-100 µM
[4] = biological target: T1, Mushroom tyrosinase (Agaricus bisporus); experiment: Inhibition of mushroom Tyrosinase using L-DOPA as substrate assessed as reduction in oxygen consumption measured after 10 mins

SMILES	inhibition [1]	inhibition [2]	inhibition [3]	inhibition [4]
Oc1cc(O)c2c(c1)O[C@H](c1cc(O)c(O)c(O)c1)[C@H](O)C2	Active	Active	Active	–
O=C(O)c1cc(O)c(O)c(O)c1	Active	Active	Active	–
O=C(O[C@@H]1Cc2c(O)cc(O)cc2O[C@@H]1c1cc(O)c(O)c(O)c1)c1cc(O)c(O)c(O)c1	Active	Active	Active	10%

Reference: ChEMBL document CHEMBL6078627, “Epigallocatechin and epigallocatechin-3-gallate are not inhibitors of tyrosinase” (Bioorg Med Chem Lett, 2024)
